These results are taken from US8507540B2, “Oxazolidinone derivatives containing new bicyclic group, having antibacterial activity, and method for treating pathogenic bacterial infections using the same” (Korean Institute of Science and Technology, priority 2011, dated 2013).

Data set [1] deals with Staphylococcus aureus, methicillin resistant. Put plainly: In vitro antibacterial activity test, Agar Dilution MIC. The following applies: 18 h. In general terms: Agar dilution tests growth on a series of plates holding different concentrations.
Data set [2] in a line: Human hepatic microsomal stability test. Particulars: human hepatic microsomes. Format: in vitro ADME.
In data set [3] the target is T1, CYP1A2 (Homo sapiens, UniProt P05177).
T1 construct: purchased Invitrogen
T1 sequence (P05177 whole entry): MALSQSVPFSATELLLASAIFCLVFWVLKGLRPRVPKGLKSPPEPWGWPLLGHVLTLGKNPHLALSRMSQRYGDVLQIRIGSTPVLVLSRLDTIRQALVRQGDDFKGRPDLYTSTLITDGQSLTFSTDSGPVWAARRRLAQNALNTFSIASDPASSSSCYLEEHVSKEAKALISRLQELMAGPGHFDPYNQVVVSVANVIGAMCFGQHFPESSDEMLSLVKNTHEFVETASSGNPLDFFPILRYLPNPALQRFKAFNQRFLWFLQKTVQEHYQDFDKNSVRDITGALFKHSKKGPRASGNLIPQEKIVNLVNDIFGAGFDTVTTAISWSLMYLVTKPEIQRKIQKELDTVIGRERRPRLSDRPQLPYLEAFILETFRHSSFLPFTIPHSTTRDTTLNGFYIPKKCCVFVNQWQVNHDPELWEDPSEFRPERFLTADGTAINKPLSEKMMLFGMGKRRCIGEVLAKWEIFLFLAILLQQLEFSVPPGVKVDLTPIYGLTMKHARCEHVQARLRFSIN
The experiment in a line: CYP450 remaining test (Vivid CYP450 Screening Kits). The following applies: isozyme 1A2. Format: in vitro ADME.

Data set [4] concerns Haemophilus influenzae, beta-lactamase-positive. The experiment in a line: In vitro antibacterial activity test, Agar Dilution MIC. Particulars: 18 h.
In data set [5] the test system is Staphylococcus pneumoniae, penicillin susceptible. Described as above. The following applies: 18 h.
Data set [6] has as its target CYP3A4 (Homo sapiens, UniProt P08684). Put plainly: CYP450 remaining test (Vivid CYP450 Screening Kits). The procedure: (§1) CYP450 remaining test was conducted using Vivid® CYP450 Screening Kits Protocol (Invitrogen), and hERG assay for cardiac toxicity test was conducted using an automated patch-clamp device, NPC-16 Patchliner (Nanion Technologies, Munchen, Germany) according to the method of C. Farre, et al. (Combinatorial Chemistry & High Throughput Screening, 2009, 12, 24-37). And, human hepatic microsomal stability test was conducted according to the method of W. A. Korfmacher, et al. (Rapid Commun. Mass Spectrom. 13, 901-907 (1999)).

Data set [7] concerns the target CYP2D6 (Homo sapiens, UniProt P10635). Described as above. The procedure:
as §1

For data set [8], the system named is CYP1A2, CYP2D6, CYP2C9, CYP3A4. The experiment in a line: in vitro. The data set is classed as in vitro ADME. The following applies: human.
The test system of data set [9] is MRSA and other gram positive bacteria; Staphylococcus sp., Enterococcus sp. and Haemophilus influenza. Put plainly: In vitro antibacterial activity test, overall statements on the strain panel. The following applies: various strains of Table 1.
Data set [10] deals with Mycobacterium tuberculosis (Mtb) H37Rv. Put plainly: In vitro antituberculous activity test, Microplate Alamar Blue Assay. Particulars: versus linezolid. The data set is classed as cell-based. In general terms: The colour change of resazurin is a common sign of viable cells or microbes.
Data set [11] has as its system Enterococcus faecium, vancomycin resistant. The experiment in a line: In vitro antibacterial activity test, Agar Dilution MIC. Particulars: 18 h.
Data set [12] deals with hERG (Homo sapiens, UniProt Q12809). The experiment in a line: hERG assay for cardiac toxicity, automated patch-clamp. Format: cell-based. A general note: The hERG channel carries a current that helps repolarise heart muscle cells.
Chain of hERG (Q12809 whole entry): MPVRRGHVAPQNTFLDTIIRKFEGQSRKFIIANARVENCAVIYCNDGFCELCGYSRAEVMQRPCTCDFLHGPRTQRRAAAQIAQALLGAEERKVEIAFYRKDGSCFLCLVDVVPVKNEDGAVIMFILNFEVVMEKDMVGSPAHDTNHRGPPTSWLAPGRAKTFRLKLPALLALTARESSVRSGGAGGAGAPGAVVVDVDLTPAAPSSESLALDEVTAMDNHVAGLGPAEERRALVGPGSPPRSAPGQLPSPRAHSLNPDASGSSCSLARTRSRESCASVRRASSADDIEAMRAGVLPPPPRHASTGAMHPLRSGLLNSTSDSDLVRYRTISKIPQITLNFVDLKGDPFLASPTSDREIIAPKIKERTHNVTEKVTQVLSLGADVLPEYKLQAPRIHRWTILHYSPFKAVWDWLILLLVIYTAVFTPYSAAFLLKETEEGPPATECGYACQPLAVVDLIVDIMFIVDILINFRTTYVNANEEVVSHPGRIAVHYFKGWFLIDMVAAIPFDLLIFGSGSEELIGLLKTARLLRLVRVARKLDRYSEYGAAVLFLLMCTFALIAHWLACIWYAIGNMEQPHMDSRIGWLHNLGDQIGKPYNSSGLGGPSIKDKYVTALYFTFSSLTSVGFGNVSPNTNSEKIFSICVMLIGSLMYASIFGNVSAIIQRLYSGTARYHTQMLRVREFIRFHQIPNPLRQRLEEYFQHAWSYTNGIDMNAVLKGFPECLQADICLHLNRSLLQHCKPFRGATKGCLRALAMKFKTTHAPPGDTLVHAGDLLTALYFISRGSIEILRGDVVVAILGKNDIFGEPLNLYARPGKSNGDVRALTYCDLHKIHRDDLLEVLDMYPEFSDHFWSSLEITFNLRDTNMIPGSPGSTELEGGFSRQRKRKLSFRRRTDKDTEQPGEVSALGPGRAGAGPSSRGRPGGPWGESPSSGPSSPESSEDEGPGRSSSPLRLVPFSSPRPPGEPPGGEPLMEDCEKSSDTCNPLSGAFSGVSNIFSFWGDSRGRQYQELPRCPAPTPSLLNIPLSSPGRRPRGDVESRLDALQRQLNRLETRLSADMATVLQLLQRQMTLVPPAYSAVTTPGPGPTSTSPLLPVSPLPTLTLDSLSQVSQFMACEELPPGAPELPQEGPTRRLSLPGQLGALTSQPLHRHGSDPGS
Data set [13] deals with Staphylococcus agalactiae. The experiment in a line: In vitro antibacterial activity test, Agar Dilution MIC. Particulars: 18 h.
In data set [14] the test system is Staphylococcus aureus, methicillin susceptible. The data set is described as above. Particulars: 18 h.
Data set [15] has as its system Enterococcus faecalis, vancomycin susceptible. Described as above. Particulars: 18 h.
Data set [16] concerns Coagulase negative staphylococci, methicillin susceptible. The data set is described as above. Particulars: 18 h.
For data set [17], the system named is Enterococcus faecium, vancomycin susceptible. The data set is described as above. The following applies: 18 h.
Data set [18] concerns Enterococcus faecalis, vancomycin resistant. Described as above. Particulars: 18 h.
Data set [19] has as its system Coagulase negative staphylococci, methicillin resistant. The description is as above. The following applies: 18 h.
Data set [20] relates to Staphylococcus pneumoniae, penicillin non-susceptible. Described as above. The following applies: 18 h.
Data set [21] has as its system Staphylococcus pyogenes. The data set is described as above. The following applies: Staphylococcus aureus, 18 h.
Data set [22] has as its target CYP2C9 (Homo sapiens, UniProt P11712). The experiment in a line: CYP450 remaining test (Vivid CYP450 Screening Kits).
Setting [23] is: automated patch-clamp, NPC-16 Patchliner.

Values after ≈ are worked out from the molar mass of the structure shown.

Chain of CYP2D6 (P10635 whole entry): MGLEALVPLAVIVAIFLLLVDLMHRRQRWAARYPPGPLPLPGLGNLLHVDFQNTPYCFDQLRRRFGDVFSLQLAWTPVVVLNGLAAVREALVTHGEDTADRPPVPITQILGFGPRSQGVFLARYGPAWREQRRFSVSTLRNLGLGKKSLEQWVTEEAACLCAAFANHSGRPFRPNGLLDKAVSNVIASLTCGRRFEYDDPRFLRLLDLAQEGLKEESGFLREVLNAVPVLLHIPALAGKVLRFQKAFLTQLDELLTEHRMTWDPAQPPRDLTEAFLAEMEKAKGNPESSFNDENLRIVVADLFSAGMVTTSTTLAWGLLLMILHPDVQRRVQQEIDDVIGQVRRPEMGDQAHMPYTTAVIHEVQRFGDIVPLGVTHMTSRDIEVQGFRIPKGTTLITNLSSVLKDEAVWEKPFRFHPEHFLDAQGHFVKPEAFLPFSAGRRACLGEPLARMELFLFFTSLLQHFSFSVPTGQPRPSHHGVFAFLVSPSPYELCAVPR
Chain of CYP3A4 (P08684 whole entry): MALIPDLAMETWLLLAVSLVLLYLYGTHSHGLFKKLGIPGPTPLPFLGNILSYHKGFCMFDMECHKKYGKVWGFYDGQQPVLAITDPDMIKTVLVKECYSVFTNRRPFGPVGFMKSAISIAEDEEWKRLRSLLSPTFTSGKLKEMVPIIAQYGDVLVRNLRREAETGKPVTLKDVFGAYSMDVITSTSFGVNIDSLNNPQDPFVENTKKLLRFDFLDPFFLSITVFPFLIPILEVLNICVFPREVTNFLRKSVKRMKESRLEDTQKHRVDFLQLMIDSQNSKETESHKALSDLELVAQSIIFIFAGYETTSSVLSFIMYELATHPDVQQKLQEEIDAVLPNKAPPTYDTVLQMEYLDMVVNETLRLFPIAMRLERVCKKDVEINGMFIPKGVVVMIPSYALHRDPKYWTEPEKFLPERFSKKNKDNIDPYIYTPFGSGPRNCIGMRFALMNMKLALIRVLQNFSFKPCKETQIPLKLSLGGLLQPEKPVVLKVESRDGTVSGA
Chain of CYP2C9 (P11712 whole entry): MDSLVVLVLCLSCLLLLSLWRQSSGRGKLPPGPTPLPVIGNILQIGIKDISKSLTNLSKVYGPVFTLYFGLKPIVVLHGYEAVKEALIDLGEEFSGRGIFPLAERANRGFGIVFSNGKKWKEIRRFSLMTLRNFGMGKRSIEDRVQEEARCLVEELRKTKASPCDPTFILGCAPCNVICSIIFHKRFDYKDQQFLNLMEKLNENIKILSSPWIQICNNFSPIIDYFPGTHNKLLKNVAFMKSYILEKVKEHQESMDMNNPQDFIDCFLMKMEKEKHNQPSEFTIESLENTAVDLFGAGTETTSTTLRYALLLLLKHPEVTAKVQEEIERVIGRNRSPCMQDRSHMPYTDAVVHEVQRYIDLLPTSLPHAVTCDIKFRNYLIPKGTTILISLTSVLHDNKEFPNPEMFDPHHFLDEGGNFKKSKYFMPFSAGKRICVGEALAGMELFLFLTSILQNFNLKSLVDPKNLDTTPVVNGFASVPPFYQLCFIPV

The IC50 is the point on the concentration scale where inhibition reaches its midpoint. Low values mean higher potency, high ones lower potency. Turning to `O=C1CC2CN(c3ccc(N4C[C@H](Cn5ccnn5)OC4=O)cc3F)CC2C1` (stereo partly drawn) [Example 4, (5R)-3-[3-fluoro-4-(5-oxo-hexahydro-cyclopenta[c]pyrrol-2-yl)phenyl]-5-(1,2,3-triazol-1-ylmethyl)oxazolidin-2-one], the MIC was found to be 3.1 µg/mL (≈ 8.04 µM) in data set [1]; 1.5 µg/mL (≈ 3.89 µM) in [4]; 0.7 µg/mL (≈ 1.82 µM) in [5]; 3.1 µg/mL (≈ 8.04 µM) in [11]; 0.7 µg/mL (≈ 1.82 µM) in data set [13]; 3.1 µg/mL (≈ 8.04 µM) in data set [14]. Further, the MIC in [15] was found to be 1.5 µg/mL (≈ 3.89 µM); in data set [16], 3.1 µg/mL (≈ 8.04 µM); in data set [17], 1.5 µg/mL (≈ 3.89 µM); in data set [18], 1.5 µg/mL (≈ 3.89 µM); in data set [19], 3.1 µg/mL (≈ 8.04 µM); in data set [20], 0.3 µg/mL (≈ 0.778 µM). In [21], this compound came in with an MIC of 0.3 µg/mL (≈ 0.778 µM). The “Human Hepatic Microsomal stability Remaining activity after 30 minutes (%)” value in [2] is 83.8%. Also, the activity in [3] is 94.9%; in data set [6] it was 106%; in data set [7], 108%; in [8], 73.6 to 106%; in data set [22] it was 73.7%. For the same compound, in data set [9], the “antibacterial activity against the strain panel” value is given as “high antibacterial activities”. Further, in [10], the “antituberculous activity compared to linezolid” value is recorded as “more excellent antibacterial activities than linezolid”. The compound further returned a concentration for half-maximal inhibition (IC50) in data set [12] (setting [23]) of 80.5 µM. For the same compound, in data set [12] (setting [23]), the “hERG Max,” value was found to be 38%. The “hERG bonding” value in data set [12] (in vitro hERG assay, cardiac toxicity) is given as “does not have hERG bonding”.
